Results as given in patent US20020065219A1, “Water soluble thiazolyl peptide derivatives” (priority 2000, published 2002).
In brackets after ≈: the same amount, converted by molar mass. Where two headings read alike, the source gives them in different places.

Legend:
Test in all cases: MIC, broth micro dilution assay (NCCLS)
Format in all cases: cell-based
[1] = tested on: Staphylococcus aureus A15090; settings: for MIC: Staphylococcus aureus, A15090, 18 h, read-out: MIC (μg/mL) against Staphylococcus aureus A15090
[2] = tested on: Streptococcus pneumoniae A28272; settings: for MIC: Streptococcus pneumoniae, A28272, 18 h, read-out: MIC (μg/mL) against Streptococcus pneumoniae A28272
[3] = tested on: Enterococcus faecalis A20688; settings: for MIC: Enterococcus faecalis, A20688, 18 h, read-out: MIC (μg/mL) against Enterococcus faecalis A20688
[4] = Mueller-Hinton medium, 35° C., 18 hours
[5] = 50% Mueller-Hinton medium and 50% Todd Hewitt medium, 35° C., 18 hours

Structure (SMILES) | MIC (μg/mL) against Staphylococcus aureus A15090 [1] [µg/mL] | MIC (μg/mL) against Streptococcus pneumoniae A28272 [2] [µg/mL] | MIC (μg/mL) against Enterococcus faecalis A20688 [3] [µg/mL] | MIC (μg/mL) against Staphylococcus aureus A15090 [1, 4] [µg/mL] | MIC (μg/mL) against Streptococcus pneumoniae A28272 [2, 5] [µg/mL] | MIC (μg/mL) against Enterococcus faecalis A20688 [3, 4] | also measured
CO/C(C)=C1/NC(=O)C(C(C)O)NC(=O)c2csc(n2)-c2cc(O)c(-c3nc(C(=O)NC(CNCCOCCOCCOCCN)C(N)=O)cs3)nc2-c2csc(n2)C2COC(=O)c3c4c5c(cccc5n3O)COC(=O)C(O[C@H]3C[C@](C)(O)[C@H](N(C)C)[C@H](C)O3)C(OC4)C(NC(=O)c3csc1n3)c1nc(cs1)C(=O)N2 (stereo partly drawn) [Example 58] | 1.0 (≈ 0.614 µM) | 0.25 (≈ 0.153 µM) | 1.0 (≈ 0.614 µM) | – | – | – | –
CO/C(C)=C1/NC(=O)C(C(C)O)NC(=O)c2csc(n2)-c2cc(O)c(-c3nc(C(=O)NC(CSCCC(=O)O)C(N)=O)cs3)nc2-c2csc(n2)C2COC(=O)c3c4c5c(cccc5n3O)COC(=O)C(O[C@H]3C[C@](C)(O)[C@H](N(C)C)[C@H](C)O3)C(OC4)C(NC(=O)c3csc1n3)c1nc(cs1)C(=O)N2 (stereo partly drawn) [Example 40] | – | – | – | 1.0 (≈ 0.648 µM) | 0.03 (≈ 0.0194 µM) | (4.0) μg/mL | –
COC(C)=C1NC(=O)C(C(C)O)NC(=O)c2csc(n2)-c2cc(O)c(-c3nc(C(=O)NC(CN4CCCC4COc4cccnc4)C(N)=O)cs3)nc2-c2csc(n2)C2COC(=O)c3c4c5c(cccc5n3O)COC(=O)C(OC3CC(C)(O)C(N(C)C)C(C)O3)C(OC4)C(NC(=O)c3csc1n3)c1nc(cs1)C(=O)N2 (stereo not drawn) [Example 79] | 0.06 (≈ 0.0371 µM) | 0.001 (≈ 0.000619 µM) | 0.125 (≈ 0.0774 µM) | – | – | – | –
CO/C(C)=C1/NC(=O)C(C(C)O)NC(=O)c2csc(n2)-c2cc(O)c(-c3nc(C(=O)NC(CS(=O)(=O)C4CN5CCC4CC5)C(N)=O)cs3)nc2-c2csc(n2)C2COC(=O)c3c4c5c(cccc5n3O)COC(=O)C(O[C@H]3C[C@](C)(O)C(N(C)C)[C@H](C)O3)C(OC4)C(NC(=O)c3csc1n3)c1nc(cs1)C(=O)N2 (stereo partly drawn) [Example 104] | – | – | – | – | – | – | MIC [1]: 0.5 µg/mL (≈ 0.31 µM); MIC [2]: 0.06 µg/mL (≈ 0.0372 µM); MIC [3]: 1 µg/mL (≈ 0.62 µM)
CO/C(C)=C1/NC(=O)C(C(C)O)NC(=O)c2csc(n2)-c2cc(O)c(-c3nc(C(=O)NC(CSC(CC(=O)O)C(=O)O)C(N)=O)cs3)nc2-c2csc(n2)C2COC(=O)c3c4c5c(cccc5n3O)COC(=O)C(O[C@H]3C[C@](C)(O)[C@H](N(C)C)[C@H](C)O3)C(OC4)C(NC(=O)c3csc1n3)c1nc(cs1)C(=O)N2 (stereo partly drawn) [Example 42] | – | – | – | 4.0 (≈ 2.52 µM) | 0.25 (≈ 0.157 µM) | 4.0 µg/mL (≈ 2.52 µM) | –
COC(C)=C1NC(=O)C(C(C)O)NC(=O)c2csc(n2)-c2cc(O)c(-c3nc(C(=O)NC(CN4CC5CC4CN5C)C(N)=O)cs3)nc2-c2csc(n2)C2COC(=O)c3c4c5c(cccc5n3O)COC(=O)C(OC3CC(C)(O)C(N(C)C)C(C)O3)C(OC4)C(NC(=O)c3csc1n3)c1nc(cs1)C(=O)N2 (stereo not drawn) [Example 73] | 0.25 (≈ 0.161 µM) | 0.015 (≈ 0.00968 µM) | 2.0 (≈ 1.29 µM) | – | – | – | –
CO/C(C)=C1/NC(=O)C(C(C)O)NC(=O)c2csc(n2)-c2cc(O)c(-c3nc(C(=O)NC(CN4CCN(CC(=O)O)CC4)C(N)=O)cs3)nc2-c2csc(n2)C2COC(=O)c3c4c5c(cccc5n3O)COC(=O)C(O[C@H]3C[C@](C)(O)[C@H](N(C)C)[C@H](C)O3)C(OC4)C(NC(=O)c3csc1n3)c1nc(cs1)C(=O)N2 (stereo partly drawn) [Example 39] | – | – | – | 1.0 (≈ 0.632 µM) | 0.03 (≈ 0.019 µM) | 1.0 µg/mL (≈ 0.632 µM) | –
COC(C)=C1NC(=O)C(C(C)O)NC(=O)c2csc(n2)-c2cc(O)c(-c3nc(C(=O)NC(CN(C)CCC(=O)Nc4ccncc4)C(N)=O)cs3)nc2-c2csc(n2)C2COC(=O)c3c4c5c(cccc5n3O)COC(=O)C(OC3CC(C)(O)C(N(C)C)C(C)O3)C(OC4)C(NC(=O)c3csc1n3)c1nc(cs1)C(=O)N2 (stereo not drawn) [Example 82] | – | – | – | 0.5 (≈ 0.309 µM) | 0.03 (≈ 0.0186 µM) | 0.5 µg/mL (≈ 0.309 µM) | –
CNC(=O)N(CCN(C)C)CC(NC(=O)c1csc(-c2nc3c(cc2O)-c2nc(cs2)C(=O)NC(C(C)O)C(=O)N/C(=C(\C)OC)c2nc(cs2)C(=O)NC2c4nc(cs4)C(=O)NC(COC(=O)c4c5c6c(cccc6n4O)COC(=O)C(OC4CC(C)(O)C(N(C)C)C(C)O4)C2OC5)c2nc-3cs2)n1)C(N)=O (stereo not drawn) [Example 110] | 0.5 (≈ 0.316 µM) | 0.03 (≈ 0.019 µM) | 2.0 (≈ 1.26 µM) | – | – | – | –
CCNCCN(CC)CC(NC(=O)c1csc(-c2nc3c(cc2O)-c2nc(cs2)C(=O)NC(C(C)O)C(=O)N/C(=C(\C)OC)c2nc(cs2)C(=O)NC2c4nc(cs4)C(=O)NC(COC(=O)c4c5c6c(cccc6n4O)COC(=O)C(O[C@H]4C[C@](C)(O)[C@H](N(C)C)[C@H](C)O4)C2OC5)c2nc-3cs2)n1)C(N)=O (stereo partly drawn) [Example 25] | – | – | – | 1.0 (≈ 0.644 µM) | 0.0005 (≈ 0.000322 µM) | 2.0 µg/mL (≈ 1.29 µM) | –
CNCCN(C)CC(NC(=O)c1csc(-c2nc3c(cc2O)-c2nc(cs2)C(=O)NC(C(C)O)C(=O)N/C(=C(\C)OC)c2nc(cs2)C(=O)NC2c4nc(cs4)C(=O)NC(COC(=O)c4c5c6c(cccc6n4O)COC(=O)C(O[C@H]4C[C@](C)(O)[C@H](N(C)C)[C@H](C)O4)C2OC5)c2nc-3cs2)n1)C(N)=O (stereo partly drawn) [Example 23] | – | – | – | 0.06 (≈ 0.0393 µM) | 0.001 (≈ 0.000655 µM) | 0.5 µg/mL (≈ 0.328 µM) | –
CN[C@@H]1[C@H](C)O[C@@H](OC2C(=O)OCc3cccc4c3c3c(n4O)C(=O)OCC4NC(=O)c5csc(n5)C(NC(=O)c5csc(n5)/C(=C(/C)OC)NC(=O)C(C(C)O)NC(=O)c5csc(n5)-c5cc(O)c(-c6nc(C(=O)NC(CN(C)CCO)C(N)=O)cs6)nc5-c5csc4n5)C2OC3)C[C@]1(C)O (stereo partly drawn) [Example 99] | 0.03 (≈ 0.02 µM) | 0.015 (≈ 0.01 µM) | 0.125 (≈ 0.0834 µM) | – | – | – | –
CO/C(C)=C1/NC(=O)C(C(C)O)NC(=O)c2csc(n2)-c2cc(O)c(-c3nc(C(=O)NC(CN(C)CCN4CCCCC4)C(N)=O)cs3)nc2-c2csc(n2)C2COC(=O)c3c4c5c(cccc5n3O)COC(=O)C(O[C@H]3C[C@](C)(O)[C@H](N(C)C)[C@H](C)O3)C(OC4)C(NC(=O)c3csc1n3)c1nc(cs1)C(=O)N2 (stereo partly drawn) [Example 30] | 0.125 (≈ 0.0791 µM) | 0.03 (≈ 0.019 µM) | 1.0 (≈ 0.633 µM) | – | – | – | –
CO/C(C)=C1/NC(=O)C(C(C)O)NC(=O)c2csc(n2)-c2cc(O)c(-c3nc(C(=O)NC(CSCC(=O)OCc4ccccc4)C(N)=O)cs3)nc2-c2csc(n2)C2COC(=O)c3c4c5c(cccc5n3O)COC(=O)C(O[C@H]3C[C@](C)(O)[C@H](N(C)C)[C@H](C)O3)C(OC4)C(NC(=O)c3csc1n3)c1nc(cs1)C(=O)N2 (stereo partly drawn) [Example 34] | – | – | – | 1.0 (≈ 0.617 µM) | 0.001 (≈ 0.000617 µM) | 1.0 µg/mL (≈ 0.617 µM) | –
COC(C)=C1NC(=O)C(C(C)O)NC(=O)c2csc(n2)-c2cc(O)c(-c3nc(C(=O)NC(CN4CCCC4C(O)C(C)C)C(N)=O)cs3)nc2-c2csc(n2)C2COC(=O)c3c4c5c(cccc5n3O)COC(=O)C(OC3CC(C)(O)C(N(C)C)C(C)O3)C(OC4)C(NC(=O)c3csc1n3)c1nc(cs1)C(=O)N2 (stereo not drawn) [Example 81] | – | – | – | 0.125 (≈ 0.0791 µM) | 0.007 (≈ 0.00443 µM) | 0.125 µg/mL (≈ 0.0791 µM) | –
CO/C(C)=C1/NC(=O)C(C(C)O)NC(=O)c2csc(n2)-c2cc(O)c(-c3nc(C(=O)NC(CN(C)CC(O)C(O)C(O)C(O)CO)C(N)=O)cs3)nc2-c2csc(n2)C2COC(=O)c3c4c5c(cccc5n3O)COC(=O)C(O[C@H]3C[C@](C)(O)[C@H](N(C)C)[C@H](C)O3)C(OC4)C(NC(=O)c3csc1n3)c1nc(cs1)C(=O)N2 (stereo partly drawn) [Example 31] | – | – | – | 0.125 (≈ 0.0766 µM) | 0.125 (≈ 0.0766 µM) | 1.0 µg/mL (≈ 0.612 µM) | –
CNCCNCC(NC(=O)c1csc(-c2nc3c(cc2O)-c2nc(cs2)C(=O)NC(C(C)O)C(=O)N/C(=C(\C)OC)c2nc(cs2)C(=O)NC2c4nc(cs4)C(=O)NC(COC(=O)c4c5c6c(cccc6n4O)COC(=O)C(O[C@H]4C[C@](C)(O)[C@H](N(C)C)[C@H](C)O4)C2OC5)c2nc-3cs2)n1)C(N)=O (stereo partly drawn) [Example 28] | 0.25 (≈ 0.165 µM) | 0.03 (≈ 0.0198 µM) | 0.5 (≈ 0.331 µM) | – | – | – | –
CO/C(C)=C1/NC(=O)C(C(C)O)NC(=O)c2csc(n2)-c2cc(O)c(-c3nc(C(=O)NC(CN(C)CCO)C(N)=O)cs3)nc2-c2csc(n2)C2COC(=O)c3[nH]c4cccc5c4c3COC(C(O[C@H]3C[C@](C)(O)[C@H](N(C)C)[C@H](C)O3)C(=O)OC5)C(NC(=O)c3csc1n3)c1nc(cs1)C(=O)N2 (stereo partly drawn) [Example 92] | – | – | – | 0.125 (≈ 0.0835 µM) | 0.0005 (≈ 0.000334 µM) | 0.125 µg/mL (≈ 0.0835 µM) | –
CO/C(C)=C1/NC(=O)C(C(C)O)NC(=O)c2csc(n2)-c2cc(O)c(-c3nc(C(=O)NC(CSCCN(C)C)C(N)=O)cs3)nc2-c2csc(n2)C2COC(=O)c3c4c5c(cccc5n3O)COC(=O)C(O[C@H]3C[C@](C)(O)[C@H](N(C)C)[C@H](C)O3)C(OC4)C(NC(=O)c3csc1n3)c1nc(cs1)C(=O)N2 (stereo partly drawn) [Example 10] | – | – | – | – | – | – | MIC [1]: 0.125 µg/mL (≈ 0.081 µM); MIC [2]: 0.015 µg/mL (≈ 0.00972 µM); MIC [3]: 0.25 µg/mL (≈ 0.162 µM)
COC(C)=C1NC(=O)C(C(C)O)NC(=O)c2csc(n2)-c2cc(O)c(-c3nc(C(=O)NC(CN4CCCC4C(O)C4CCCCC4)C(N)=O)cs3)nc2-c2csc(n2)C2COC(=O)c3c4c5c(cccc5n3O)COC(=O)C(OC3CC(C)(O)C(N(C)C)C(C)O3)C(OC4)C(NC(=O)c3csc1n3)c1nc(cs1)C(=O)N2 (stereo not drawn) [Example 90] | – | – | – | 0.03 (≈ 0.0185 µM) | 0.007 (≈ 0.00432 µM) | 0.06 µg/mL (≈ 0.037 µM) | –
